Data taken from paper PMC12557380, “Optimization of 2,8-Diaryl-1,5-naphthyridines as Plasmodium falciparum Phosphatidylinositol 4‑Kinase Inhibitors with Improved ADME Profiles and In Vivo Efficacy” (Journal of Medicinal Chemistry, 2025).
Values after ≈ are worked out from the molar mass of the structure shown. Like-named read-outs stand apart in the source and are kept apart here.

Columns and labels:
[1] = system: P. falciparum NF54 (PfNF54) parasites; experiment: In vitro antiplasmodial asexual blood stage activity, pLDH assay, NF54; type: cell-based, Plasmodium falciparum
[2] = system: Chinese hamster ovary cells; experiment: Cytotoxicity, MTT assay, CHO; type: cell-based; conditions: Cricetulus griseus, read-out: CHO IC50
[3] = system: P. falciparum K1 (PfK1) strain; experiment: In vitro antiplasmodial asexual blood stage activity, pLDH assay, K1; type: cell-based; conditions: Plasmodium falciparum
[4] = physchem; conditions: 25 °C, pH 6.5, aqueous buffer, thermodynamic from solid
[5] = physchem; conditions: n-octanol/phosphate buffer (1:1), pH 7.4
[6] = in vivo; conditions: male, Balb/C, mouse, po, 10 mg/kg
[7] = in vitro; conditions: human, pH 7.4
[8] = in vitro; conditions: mouse, pH 7.4
[9] = Plasmodium falciparum, NF54, 72 h, read-out: Pf ABS IC50 NF54
[10] = Plasmodium falciparum, NF54, read-out: PfNF54 IC50
[11] = K1, 72 h, read-out: Pf ABS IC50 K1
[12] = Plasmodium falciparum, NF54, 72 h, pLDH assay, 72 h, read-out: Pf ABS IC50 NF54
[13] = Plasmodium falciparum, NF54, mean, supplement, read-out: PfNF54 IC50
[14] = K1, mean, supplement, read-out: PfK1 IC50
[15] = K1, pLDH assay, 72 h, read-out: Pf ABS IC50 K1

Structure (SMILES)	IC50 [1, 9]	IC50 [1, 10]	IC50 [2]	IC50 [3, 11]	IC50 ([3]; K1, read-out: PfK1 IC50)	IC50 [1, 12]	IC50 [1, 13]	solubility thermodynamic at 20 h ([4]; aqueous solution)	other results
CCN(CC)CCCC(C)Nc1ccnc2cc(Cl)ccc12 (centres unmarked) [Chloroquine, reference compound]	–	–	–	–	–	–	–	–	IC50 ([1]; Plasmodium falciparum, NF54, 72 h, read-out: PfNF54 IC50): 11 nM
C[S+]([O-])c1cccc(-c2ccc3nccc(-c4ccnc(C(F)(F)F)c4)c3n2)c1 (centres unmarked) [Compound 11, 2-(3-Methylsulfinylphenyl)-8-[2-(trifluoromethyl)pyridin-4-yl]-1,5-naphthyridine]	42 nM	42.5 nM	14000 nM	–	–	–	–	–	–
Cn1ccc(-c2ccc3nccc(-c4ccnc(C(F)(F)F)c4)c3n2)cc1=O [Compound 13, 1-Methyl-4-[8-[2-(trifluoromethyl)pyridin-4-yl]-1,5-naphthyridin-2-yl]pyridin-2-one]	77 nM	77.4 nM	–	–	–	–	–	–	–
O=c1cc(-c2ccc3nccc(-c4ccnc(C(F)(F)F)c4)c3n2)ccn1CCO [Compound 14, 1-(2-Hydroxyethyl)-4-[8-[2-(trifluoromethyl)pyridin-4-yl]-1,5-naphthyridin-2-yl]pyridin-2-one]	–	131 nM	–	340 nM	344 nM	–	–	–	–
NC(=O)Cc1cccc(-c2ccc3nccc(-c4ccnc(C(F)(F)F)c4)c3n2)c1 [Compound 15, 2-[3-[8-[2-(Trifluoromethyl)pyridin-4-yl]-1,5-naphthyridin-2-yl]phenyl]acetamide]	310 nM	310 nM	> 50000 nM	1600 nM	1620 nM	–	–	–	–
O[C@H]1CN(c2cc(-c3ccc4nccc(-c5ccnc(C(F)(F)F)c5)c4n3)ccn2)C[C@@H]1O [Compound 16, (3S,4S)-1-[4-[8-[2-(Trifluoromethyl)pyridin-4-yl]-1,5-naphthyridin-2-yl]pyridin-2-yl]pyrrolidine-3,4-diol]	51 nM	50.8 nM	28000 nM	350 nM	355 nM	–	–	–	–
CC(C)(O)C(=O)N1CC=C(c2ccc3nccc(-c4ccnc(C(F)(F)F)c4)c3n2)CC1 [Compound 17, 2-Hydroxy-2-methyl-1-[4-[8-[2-(trifluoromethyl)pyridin-4-yl]-1,5-naphthyridin-2-yl]-3,6-dihydro-2H-pyridin-1-yl]propan-1-one]	140 nM	144 nM	> 50000 nM	460 nM	463 nM	–	–	–	–
CS(=O)(=O)c1cccc(-c2ccc3nccc(-c4cccc(S(C)(=O)=O)c4)c3n2)c1 [Compound 18, 2,8-Bis(3-methylsulfonylphenyl)-1,5-naphthyridine]	–	–	–	–	–	16 nM	17.2 nM	–	IC50 ([1]; pLDH assay, 72 h, read-out: Pf ABS IC50 NF54): 17 nM; IC50 ([2]; one biological replicate): 37000 nM; solubility thermodynamic at 20 h [4]: < 5 µM
Cn1cc(-c2ccc3nccc(-c4cccc(S(C)(=O)=O)c4)c3n2)ccc1=O [Compound 20, 1-Methyl-5-[8-(3-methylsulfonylphenyl)-1,5-naphthyridin-2-yl]pyridin-2-one]	410 nM	411 nM	34000 nM	–	–	–	–	–	–
Cn1ccc(-c2ccc3nccc(-c4ccnc(C(C)(C)O)c4)c3n2)cc1=O [Compound 23, 4-[8-[2-(2-Hydroxypropan-2-yl)pyridin-4-yl]-1,5-naphthyridin-2-yl]-1-methylpyridin-2-one]	140 nM	144 nM	> 50000 nM	280 nM	277 nM	–	–	–	–
Cn1ccc(-c2ccc3nccc(-c4ccc(C(C)(C)O)nc4)c3n2)cc1=O [Compound 24, 4-[8-[6-(2-Hydroxypropan-2-yl)pyridin-3-yl]-1,5-naphthyridin-2-yl]-1-methylpyridin-2-one]	–	–	–	–	–	36 nM	35.9 nM	175 µM (≈ 65.2 µg/mL)	IC50 ([2]; one biological replicate): 12000 nM; IC50 [3, 14]: 107 nM; IC50 [3, 15]: 110 nM; logD at 3 h [5]: 1.98; bioavailability [6]: 10%; CLint scaled at 1 µM ([7]; microsomes): < 13.4 mL/min/kg; CLint scaled at 1 µM ([7]; pooled human liver microsomes): < 17.4 mL/min/kg; CLint scaled at 1 µM ([8]; microsomes): < 45.7 mL/min/kg; CLint scaled at 1 µM ([8]; mouse liver microsomes): < 59.4 mL/min/kg; in vivo mouse CLb (total body clearance from whole blood, iv 3 mg/kg): 110 mL/min/kg; in vivo mouse CLu (unbound blood clearance from CLb and plasma protein binding): 379 mL/min/kg
Cn1ccc(-c2ccc3nccc(-c4ccc(C(C)(C)O)cc4)c3n2)cc1=O [Compound 25, 4-[8-[4-(2-Hydroxypropan-2-yl)phenyl]-1,5-naphthyridin-2-yl]-1-methylpyridin-2-one]	–	–	–	–	–	2100 nM	2160 nM	190 µM (≈ 70.6 µg/mL)	–
CC(C)(O)c1ccc(-c2ccnc3ccc(-c4cccc(CC(N)=O)c4)nc23)cn1 [Compound 26, 2-[3-[8-[6-(2-Hydroxypropan-2-yl)pyridin-3-yl]-1,5-naphthyridin-2-yl]phenyl]acetamide]	37 nM	37.6 nM	30000 nM	150 nM	151 nM	–	–	–	–
CC(C)(O)c1ccc(-c2ccnc3ccc(-c4ccnc(N5C[C@H](O)[C@@H](O)C5)c4)nc23)cn1 [Compound 28, (3S,4S)-1-[4-[8-[6-(2-Hydroxypropan-2-yl)pyridin-3-yl]-1,5-naphthyridin-2-yl]pyridin-2-yl]pyrrolidine-3,4-diol]	–	–	–	–	–	43 nM	42.9 nM	20 µM (≈ 8.87 µg/mL)	IC50 ([2]; one biological replicate): > 50000 nM; IC50 [3, 14]: 52.7 nM; IC50 [3, 15]: 53 nM
CC(C)(O)c1ccc(-c2ccnc3ccc(-c4cccc(CS(C)(=O)=O)c4)nc23)cn1 [Compound 29, 2-[5-[6-[3-(Methylsulfonylmethyl)phenyl]-1,5-naphthyridin-4-yl]pyridin-2-yl]propan-2-ol]	46 nM	46.4 nM	> 50000 nM	1600 nM	1630 nM	–	–	–	–
CC(C)(O)c1cccc(-c2ccc3nccc(-c4ccc(C(C)(C)O)nc4)c3n2)c1 [Compound 30, 2-[3-[8-[6-(2-Hydroxypropan-2-yl)pyridin-3-yl]-1,5-naphthyridin-2-yl]phenyl]propan-2-ol]	–	–	–	–	–	100 nM	105 nM	55 µM (≈ 22 µg/mL)	IC50 ([2]; one biological replicate): 3000 nM; IC50 [3, 14]: 34.5 nM; IC50 [3, 15]: 34 nM
CC(C)(O)c1ccc(-c2ccnc3ccc(-c4cccc(C(C)(C)O)c4F)nc23)cn1 [Compound 31, 2-[2-Fluoro-3-[8-[6-(2-hydroxypropan-2-yl)pyridin-3-yl]-1,5-naphthyridin-2-yl]phenyl]propan-2-ol]	–	–	–	–	–	2300 nM	2360 nM	10 µM (≈ 4.17 µg/mL)	IC50 [3, 14]: 472 nM; IC50 [3, 15]: 470 nM
CC(C)(O)c1ccc(-c2ccnc3ccc(-c4ccc(C(F)(F)F)nc4)nc23)cn1 [Compound 32, 2-[5-[6-[6-(Trifluoromethyl)pyridin-3-yl]-1,5-naphthyridin-4-yl]pyridin-2-yl]propan-2-ol]	–	–	–	–	–	210 nM	207 nM	< 5 µM	–
Cn1cc(-c2ccnc3ccc(-c4cccc(S(C)(=O)=O)c4)nc23)ccc1=O [Compound 33, 1-Methyl-5-[6-(3-methylsulfonylphenyl)-1,5-naphthyridin-4-yl]pyridin-2-one]	–	–	–	–	–	96 nM	95.6 nM	55 µM (≈ 21.5 µg/mL)	–
Cn1ccc(-c2ccnc3ccc(-c4cccc(S(C)(=O)=O)c4)nc23)cc1=O [Compound 34, 1-Methyl-4-[6-(3-methylsulfonylphenyl)-1,5-naphthyridin-4-yl]pyridin-2-one]	–	173 nM	44000 nM	340 nM	338 nM	–	–	175 µM (≈ 68.5 µg/mL)	–
CS(=O)(=O)c1cccc(-c2ccc3nccc(-c4ccn(CCO)c(=O)c4)c3n2)c1 [Compound 35, 1-(2-Hydroxyethyl)-4-[6-(3-methylsulfonylphenyl)-1,5-naphthyridin-4-yl]pyridin-2-one]	200 nM	200 nM	> 50000 nM	–	–	–	–	195 µM (≈ 82.2 µg/mL)	–
CS(=O)(=O)c1cccc(-c2ccc3nccc(-c4cccc(C(=O)N5CCC(O)C5)c4)c3n2)c1 (centres unmarked) [Compound 36, [3-[6-(3-Methylsulfonylphenyl)-1,5-naphthyridin-4-yl]phenyl]-(3-hydroxypyrrolidin-1-yl)methanone]	220 nM	217 nM	33000 nM	240 nM	244 nM	–	–	50 µM (≈ 23.7 µg/mL)	–
CS(=O)(=O)c1cccc(-c2ccc3nccc(-c4ccc(C(=O)N5CC[C@H](N)C5)cc4)c3n2)c1 [Compound 38, [(3S)-3-Aminopyrrolidin-1-yl]-[4-[6-(3-methylsulfonylphenyl)-1,5-naphthyridin-4-yl]phenyl]methanone]	–	–	–	–	–	48 nM	48.6 nM	180 µM (≈ 85.1 µg/mL)	IC50 ([2]; one biological replicate): 28000 nM
CC[C@H]1CN2CCc3cc(OC)c(OC)cc3[C@@H]2C[C@@H]1C[C@H]1NCCc2cc(OC)c(OC)cc21 [Emetine, reference compound]	–	–	< 3 nM	–	–	–	–	–	–
